In patent US7585895B2, “Therapeutic substituted cyclopentanes” (Allergan, Inc., priority 2005, dated 2009):

Experiments:
EP4 receptors = target: T1, EP4 receptors (Homo sapiens, UniProt P35408); assay: Radioligand binding, [3H]PGE2, EP4 (Ki); details: HEK-293 cells stably expressing EP4, [3H]PGE2
T1 construct: expressed in transfected cells; membrane pellet
How it was run: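 Membranes from HEK-293 cells stably expressing human EP4 were incubated 60 min at 25 °C with 5 nM [3H]PGE2 and competitor in TME buffer pH 7.4, then filtered over GF/B. Non-specific binding defined with 10^−5 M unlabeled PGE2; duplicate points, at least three experiments.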

hFP = target: T2, hFP (Homo sapiens, UniProt P43088); assay: FLIPR calcium signal, FP; assay type: cell-based; details: HEK-293(EBNA)
T2 construct: expressed in transfected cells
How it was run: (§1)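 Stably transfected HEK-293(EBNA) cells loaded with 2 μM Fluo-4 AM in HBSS-HEPES pH 7.4, 37° C; peak fluorescence rise after compound addition (FLIPR, 488 nm excitation) expressed relative to buffer and standard agonist controls (PGE2 for EP subtypes, U-46619 for TP). Tested 10^−5 to 10^−11 M, duplicates, n≧3.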

hEP1 = target: T3, hEP1 (Homo sapiens, UniProt P34995); assay: FLIPR calcium signal, EP1; assay type: cell-based; details: HEK-293(EBNA)
T3 construct: expressed in transfected cells
T3 sequence (P34995 1-402): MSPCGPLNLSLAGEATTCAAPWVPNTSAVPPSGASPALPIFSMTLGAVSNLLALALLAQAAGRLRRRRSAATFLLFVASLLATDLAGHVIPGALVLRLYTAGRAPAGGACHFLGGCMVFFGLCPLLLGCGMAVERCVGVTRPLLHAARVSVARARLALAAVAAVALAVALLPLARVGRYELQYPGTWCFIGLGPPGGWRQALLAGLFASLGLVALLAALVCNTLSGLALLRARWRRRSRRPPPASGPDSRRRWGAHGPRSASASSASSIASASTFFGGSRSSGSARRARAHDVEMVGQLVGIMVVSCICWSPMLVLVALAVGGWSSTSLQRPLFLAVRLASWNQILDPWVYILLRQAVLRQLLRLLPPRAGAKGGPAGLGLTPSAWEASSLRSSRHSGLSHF
How it was run: as §1

hEP4/Gqs5 = target: T4, hEP4/Gqs5 (Homo sapiens, UniProt P35408); assay: FLIPR calcium signal, EP4; assay type: cell-based; details: HEK-293(EBNA)
T4 construct: expressed in transfected cells
How it was run: as §1

EP2 = EP2 (Homo sapiens, UniProt P43116); assay: Competition binding, [3H]PGE2, EP2 (Ki); parameters: expressed in transfected cells; membranes or whole cells; details: HEK 293 cells stably expressing human EP2, [3H]PGE2
How it was run: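 Membranes (~60 μg protein) or 2×10^5 HEK 293 cells stably expressing human EP2, in HBSS/20 mM Hepes pH 7.3 with [3H]PGE2 (10 nM), 60 min at 23° C, then filtration. Non-specific binding with 10 μM unlabeled PGE2; single-site fit IC50 converted to Ki using KD 40 nM.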

T2 sequence (P43088 whole entry): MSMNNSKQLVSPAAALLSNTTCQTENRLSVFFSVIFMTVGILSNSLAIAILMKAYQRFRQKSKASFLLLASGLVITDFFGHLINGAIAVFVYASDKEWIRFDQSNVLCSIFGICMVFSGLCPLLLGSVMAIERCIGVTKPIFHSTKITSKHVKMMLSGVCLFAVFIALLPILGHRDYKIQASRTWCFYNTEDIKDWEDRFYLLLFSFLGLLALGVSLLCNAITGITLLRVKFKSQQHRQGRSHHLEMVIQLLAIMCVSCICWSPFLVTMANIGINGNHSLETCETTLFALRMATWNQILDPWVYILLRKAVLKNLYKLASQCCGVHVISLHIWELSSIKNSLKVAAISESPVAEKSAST
Sequence of EP2 (P43116 whole entry): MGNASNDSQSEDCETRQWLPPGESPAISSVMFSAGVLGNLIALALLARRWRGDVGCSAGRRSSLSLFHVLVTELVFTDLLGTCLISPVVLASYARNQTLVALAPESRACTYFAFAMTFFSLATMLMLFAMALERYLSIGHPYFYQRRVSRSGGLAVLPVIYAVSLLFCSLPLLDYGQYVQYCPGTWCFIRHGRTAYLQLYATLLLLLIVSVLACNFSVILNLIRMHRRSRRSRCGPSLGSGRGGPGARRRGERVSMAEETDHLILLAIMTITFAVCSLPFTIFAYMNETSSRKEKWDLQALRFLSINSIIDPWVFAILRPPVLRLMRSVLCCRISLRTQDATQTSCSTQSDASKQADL
T1 sequence (P35408 whole entry): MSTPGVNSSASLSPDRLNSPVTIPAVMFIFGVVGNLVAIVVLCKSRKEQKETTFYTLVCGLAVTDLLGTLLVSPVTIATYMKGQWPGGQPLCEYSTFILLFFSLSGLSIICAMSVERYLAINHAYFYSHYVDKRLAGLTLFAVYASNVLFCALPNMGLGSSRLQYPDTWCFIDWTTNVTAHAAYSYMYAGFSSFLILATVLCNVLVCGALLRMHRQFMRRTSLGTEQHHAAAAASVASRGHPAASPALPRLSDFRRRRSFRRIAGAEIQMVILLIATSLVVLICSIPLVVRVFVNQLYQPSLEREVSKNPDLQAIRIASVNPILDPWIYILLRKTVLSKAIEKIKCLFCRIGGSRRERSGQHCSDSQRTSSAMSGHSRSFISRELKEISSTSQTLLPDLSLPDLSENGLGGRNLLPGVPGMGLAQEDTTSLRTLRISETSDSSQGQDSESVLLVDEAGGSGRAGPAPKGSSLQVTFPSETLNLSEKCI
T4 sequence (P35408 whole entry): as above

Structure (SMILES) | Ki (EP4 receptors) [nM] | Ca2+ Signal-EC50 (nM) FP (hFP) | Ca2+ Signal-EC50 (nM) EP1 (hEP1) | Ca2+ Signal-EC50 (nM) EP4 (hEP4/Gqs5) | Ki (EP2) [nM] | EC50 (hEP4/Gqs5; read-out: Ca2+ Signal-EC50 (nM) EP4) [nM]
CCCCCC(O)c1ccc([C@@H]2[C@@H](C/C=C\CCCC(=O)O)[C@H](Cl)C[C@H]2O)cc1 (mixture of isomers) [Entry 11, (Z)-7-{(1R,2S,3R,5R)-5-Chloro-3-hydroxy-2-[4-(1-hydroxy-hexyl)-phenyl]-cyclopentyl}-hept-5-enoic acid] | > 10000 | not active | not active | – | 209 | > 10000
CCCCCC(O)c1ccc([C@@H]2[C@@H](C/C=C\CCCC(=O)O)[C@H](F)C[C@H]2O)cc1 (mixture of isomers) [Entry 8, (Z)-7-{(1R,2S,3R,5R)-5-Fluoro-3-hydroxy-2-[4-(1-hydroxy-hexyl)-phenyl]-cyclopentyl}-hept-5-enoic acid] | > 10000 | not active | not active | not active | 804 | –

Further compounds by falling Ki (EP4 receptors), results first:

Ki (EP4 receptors) [nM] | Ca2+ Signal-EC50 (nM) FP (hFP) | Ca2+ Signal-EC50 (nM) EP1 (hEP1) | Ca2+ Signal-EC50 (nM) EP4 (hEP4/Gqs5) | Ki (EP2) [nM] | EC50 (hEP4/Gqs5; read-out: Ca2+ Signal-EC50 (nM) EP4) [nM] | Structure (SMILES)
15900 | not active | not active | not active | 483 | – | O=C(O)CCC/C=C\C[C@@H]1[C@@H](c2ccc(C(O)CC3CCCCC3)cc2)[C@H](O)C[C@H]1Cl (mixture of isomers) [Entry 17, (Z)-7-{(1R,2S,3R,5R)-5-Chloro-2-[4-(2-cyclohexyl-1-hydroxy-ethyl)-phenyl]-3-hydroxy-cyclopentyl}-hept-5-enoic acid]
9640 | not active | not active | not active | 225 | – | CCCCC(O)C(C)(C)c1ccc([C@@H]2[C@@H](C/C=C\CCCC(=O)O)[C@H](Cl)C[C@H]2O)cc1 (mixture of isomers) [Entry 32, (Z)-7-{(1R,2S,3R,5R)-5-Chloro-3-hydroxy-2-[4-(2-hydroxy-1,1-dimethyl-hexyl)-phenyl]-cyclopentyl}-hept-5-enoic acid]
3810 | not active | not active | not active | 260 | – | O=C(O)CCC/C=C\C[C@@H]1[C@@H](c2ccc(C(O)CCC3CCCCC3)cc2)[C@H](O)C[C@H]1Cl (stereo partly drawn) [Entry 15, (Z)-7-{(1R,2S,3R,5R)-5-Chloro-2-[4-(3-cyclohexyl-1-hydroxy-propyl)-phenyl]-3-hydroxy-cyclopentyl}-hept-5-enoic acid]
